# Key:
# Assay in all cases: relative viability (nuclei count vs DMSO), 5 days (fraction); higher = more cells survive
# EHT 1864 + OSI-027 = compound: C1COCCN1CC2=CC(=O)C(=CO2)OCCCCCSC3=C4C=CC(=CC4=NC=C3)C(F)(F)F [EHT 1864] + COc1cccc2cc(-c3nc([C@H]4CC[C@H](C(=O)O)CC4)n4ncnc(N)c34)[nH]c12 [OSI-027] (partner 0.5 µM)
# Summary of the method: (§1)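 Lung cancer cell lines were pin-tool dosed in 1536-well plates on the day after seeding, with either a lone drug or a fixed anchor-drug dose plus five library-drug doses (not always all listed) in √10 steps. Nuclei were counted on 4× images after 5 days. Relative viability is the ratio of treated-well to vehicle-well nuclei counts, with each value a median of duplicate plates.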
# EHT 1864 + Linsitinib = compound: C1COCCN1CC2=CC(=O)C(=CO2)OCCCCCSC3=C4C=CC(=CC4=NC=C3)C(F)(F)F [EHT 1864] + C[C@]1(O)C[C@@H](c2nc(-c3ccc4ccc(-c5ccccc5)nc4c3)c3c(N)nccn32)C1 [Linsitinib] (partner 1 µM)
# Summary of the method: as §1
# EHT 1864 + Lapatinib = compound: C1COCCN1CC2=CC(=O)C(=CO2)OCCCCCSC3=C4C=CC(=CC4=NC=C3)C(F)(F)F [EHT 1864] + CS(=O)(=O)CCNCc1ccc(-c2ccc3ncnc(Nc4ccc(OCc5cccc(F)c5)c(Cl)c4)c3c2)o1 [Lapatinib] (partner 2 µM)
# Summary of the method: as §1
# EHT 1864 + Trametinib = compound: C1COCCN1CC2=CC(=O)C(=CO2)OCCCCCSC3=C4C=CC(=CC4=NC=C3)C(F)(F)F [EHT 1864] + CC(=O)Nc1cccc(-n2c(=O)n(C3CC3)c(=O)c3c(Nc4ccc(I)cc4F)n(C)c(=O)c(C)c32)c1 [Trametinib] (partner 0.02 µM)
# Summary of the method: as §1
Cell Line,relative viability (EHT 1864 + OSI-027; first compound 0.04 µM),relative viability (EHT 1864 + OSI-027; first compound 0.1265 µM),relative viability (EHT 1864 + OSI-027; first compound 0.4 µM),relative viability (EHT 1864 + OSI-027; first compound 1.265 µM),relative viability (EHT 1864 + OSI-027; first compound 4 µM),relative viability (EHT 1864 + Linsitinib; first compound 0.04 µM),relative viability (EHT 1864 + Linsitinib; first compound 0.4 µM),relative viability (EHT 1864 + Linsitinib; first compound 1.265 µM),relative viability (EHT 1864 + Linsitinib; first compound 4 µM),relative viability (EHT 1864 + Lapatinib; first compound 0.04 µM),relative viability (EHT 1864 + Lapatinib; first compound 0.4 µM),relative viability (EHT 1864 + Lapatinib; first compound 1.265 µM),relative viability (EHT 1864 + Lapatinib; first compound 4 µM),relative viability (EHT 1864 + Trametinib; first compound 0.04 µM),relative viability (EHT 1864 + Trametinib; first compound 0.1265 µM),relative viability (EHT 1864 + Trametinib; first compound 0.4 µM),relative viability (EHT 1864 + Trametinib; first compound 1.265 µM),relative viability (EHT 1864 + Trametinib; first compound 4 µM),relative viability (EHT 1864 + Linsitinib; first compound 0.1265 µM),relative viability (EHT 1864 + Lapatinib; first compound 0.1265 µM)
NCI-H23,0.511,0.352,0.673,0.523,0.563,0.522,0.443,0.59,0.551,0.927,1.05,0.938,0.928,0.347,0.413,0.31,0.396,0.419,,
NCI-H322M,0.591,0.444,0.535,0.585,0.533,0.89,0.98,0.878,0.968,0.613,0.634,0.522,0.629,0.525,0.525,0.544,0.595,0.595,0.806,0.527
NCI-H358,0.842,0.745,0.863,0.799,0.685,0.759,0.738,0.794,0.639,0.477,0.441,0.413,0.434,0.138,0.126,0.153,0.14,0.124,,
NCI-H460,0.678,0.576,0.649,0.621,0.552,0.76,0.747,0.624,0.845,0.891,0.975,0.845,0.885,,0.108,0.222,0.133,0.134,0.603,0.897
NCI-H520,0.266,0.25,0.247,0.24,0.224,0.917,0.747,0.813,0.913,0.833,0.834,0.913,0.694,0.692,0.628,0.732,0.659,0.67,0.998,0.743
NCI-H596,0.716,0.651,0.803,0.572,0.529,1.06,0.989,0.906,0.964,1.16,1.12,1.01,1.09,0.796,0.658,0.812,0.738,0.857,1.11,0.968
NCI-H647,0.622,0.368,0.598,0.738,0.621,1.03,1.2,1.15,0.983,0.856,0.923,0.957,1.14,0.437,0.353,0.604,0.429,0.464,1.13,0.842
NCI-H650,0.53,0.354,0.546,0.531,0.49,0.94,1.01,0.947,0.884,0.797,1.33,1.07,0.989,0.995,0.92,0.898,1.23,1.11,,
NCI-H661,0.735,0.587,0.659,0.711,0.597,0.603,0.535,0.512,0.449,0.429,0.511,0.429,0.503,0.527,0.53,0.616,0.565,0.498,0.516,0.488
NCI-H727,0.525,0.532,0.592,0.576,0.61,0.272,0.349,,0.319,0.841,0.635,,0.881,0.389,0.386,0.382,0.374,0.421,0.366,0.743
NCI-H838,0.371,0.313,0.395,0.376,0.425,0.977,1.08,1.05,1.01,0.91,0.979,0.938,0.932,0.5,0.466,0.553,0.514,0.536,0.889,0.799
NCI-H1355,0.417,0.289,0.409,0.397,0.396,0.781,0.718,0.72,0.77,1.02,0.889,1.02,1.04,0.461,0.39,0.393,0.452,0.412,0.667,0.819
NCI-H1395,0.649,0.515,0.683,0.621,0.696,1.02,0.957,1.16,1.02,1.04,1.05,1.01,0.861,1.07,0.908,0.977,0.978,1.08,0.982,0.877
NCI-H1437,0.852,0.916,0.813,0.722,0.703,0.905,0.974,0.776,0.655,0.793,0.678,0.636,0.62,0.531,0.411,0.56,0.485,0.45,0.917,0.723
NCI-H1651,0.704,0.675,0.75,0.647,0.69,1.07,0.992,0.931,0.996,0.856,0.843,0.824,0.912,0.832,0.827,0.822,0.817,0.808,0.885,0.788
NCI-H1666,0.887,0.691,0.8,0.81,0.833,0.828,0.837,0.73,0.912,0.822,0.584,0.775,0.841,0.961,0.886,0.8,0.884,0.862,0.74,0.484
NCI-H1734,0.706,,0.611,0.66,0.592,0.867,0.863,0.919,0.77,1.08,1.09,1.01,1.12,0.781,0.709,0.643,0.592,0.61,0.902,0.86

Cell Line,relative viability (EHT 1864 + OSI-027; first compound 0.04 µM),relative viability (EHT 1864 + OSI-027; first compound 0.1265 µM),relative viability (EHT 1864 + OSI-027; first compound 0.4 µM),relative viability (EHT 1864 + OSI-027; first compound 1.265 µM),relative viability (EHT 1864 + OSI-027; first compound 4 µM),relative viability (EHT 1864 + Linsitinib; first compound 0.04 µM),relative viability (EHT 1864 + Linsitinib; first compound 0.4 µM),relative viability (EHT 1864 + Linsitinib; first compound 1.265 µM),relative viability (EHT 1864 + Linsitinib; first compound 4 µM),relative viability (EHT 1864 + Lapatinib; first compound 0.04 µM),relative viability (EHT 1864 + Lapatinib; first compound 0.4 µM),relative viability (EHT 1864 + Lapatinib; first compound 1.265 µM),relative viability (EHT 1864 + Lapatinib; first compound 4 µM),relative viability (EHT 1864 + Trametinib; first compound 0.04 µM),relative viability (EHT 1864 + Trametinib; first compound 0.1265 µM),relative viability (EHT 1864 + Trametinib; first compound 0.4 µM),relative viability (EHT 1864 + Trametinib; first compound 1.265 µM),relative viability (EHT 1864 + Trametinib; first compound 4 µM),relative viability (EHT 1864 + Linsitinib; first compound 0.1265 µM),relative viability (EHT 1864 + Lapatinib; first compound 0.1265 µM)
NCI-H1755,0.779,0.619,0.691,0.619,0.618,0.983,0.956,0.927,0.962,1.08,1.04,0.998,1.05,0.732,0.782,0.768,0.701,0.726,0.907,0.866
NCI-H1792,0.67,0.65,0.717,0.689,0.68,0.514,0.556,0.57,0.628,0.864,0.926,0.882,0.928,0.432,,0.438,0.345,0.456,0.376,0.777
NCI-H1793,0.226,,0.313,,0.262,,0.888,0.696,0.984,,0.667,0.602,0.638,0.37,0.356,0.465,0.428,0.434,0.775,0.543
NCI-H1915,0.657,,0.641,0.599,0.545,1.13,1.04,1.1,1.08,1.03,0.993,0.937,0.902,0.295,,0.283,0.28,0.286,,
NCI-H1944,0.44,,0.443,0.417,0.399,1.28,1.21,1.25,1.25,0.907,0.916,0.858,0.817,0.426,,0.42,0.39,0.387,,
NCI-H1975,0.709,0.668,0.667,,0.591,0.956,0.955,0.811,0.835,0.868,0.802,0.837,0.856,0.375,0.329,0.296,0.225,0.327,0.967,0.9
NCI-H1993,0.548,,0.541,0.554,0.553,0.735,0.709,0.778,0.695,0.918,0.806,0.864,0.858,0.579,,0.5,0.485,0.543,0.757,0.812
NCI-H2009,0.594,0.521,0.677,0.62,0.511,1.15,1.17,1.24,0.897,0.77,0.921,0.963,0.824,0.252,0.267,0.301,0.336,0.277,1.2,0.749
NCI-H2023,0.373,0.314,0.375,0.313,0.369,0.586,0.612,0.656,0.602,0.813,0.727,0.919,0.84,0.514,0.459,0.492,0.569,0.573,0.717,0.558
NCI-H2085,0.719,,0.772,0.719,0.812,0.87,0.883,0.91,0.787,0.809,0.807,0.716,0.744,0.417,0.533,0.514,0.604,0.543,0.816,0.678
NCI-H2087,0.496,,0.578,0.496,0.586,0.88,0.796,0.729,0.68,1.03,1.01,0.614,0.789,0.188,,0.211,0.167,0.215,0.865,0.485
NCI-H2126,0.738,0.667,0.729,0.74,0.725,0.733,0.746,0.726,0.72,0.779,0.759,0.798,0.697,0.614,0.568,0.545,0.503,0.548,0.691,0.723
NCI-H2228,0.637,0.48,0.666,0.522,0.588,0.655,0.802,0.661,0.478,1.08,1.03,1.13,1.02,0.553,0.566,0.389,,0.533,0.635,0.68
NCI-H2347,0.389,0.369,0.442,,0.396,0.92,0.95,0.941,0.999,0.961,0.814,0.793,1.12,0.222,0.281,0.251,0.276,0.463,0.741,0.638
NCI-H2405,0.655,0.647,0.642,0.535,0.714,0.922,1.06,,0.851,1.1,1.11,,1.13,0.688,0.587,0.744,0.644,0.612,0.933,1.02
NCI-H3122,0.922,0.594,0.952,0.896,0.956,1.03,0.932,1.02,0.965,0.976,1.03,1.08,1,0.219,0.288,0.248,0.202,0.219,0.977,0.825

# Reference: the supplement of paper PMC10307832
